Like-named read-outs stand apart in the source and are kept apart here.
Key:
HBV replication [1] = settings: Figures 1 and 2, earlier inhibitors; cited from earlier work
HepDES19 cells [2] = system: HepDES19 cells; set-up: method as in PMID 28450058, PMID 28633989, PMID 29565562, PMID 30768944; settings: Figures 1 and 2, earlier inhibitors; cited from earlier work
HBV replication [3] = assay: qPCR HBV replication inhibition assay in HepDES19 cells; assay type: cell-based, Hepatitis B virus (HBV) genotype D; settings: Hepatitis B virus, 72 h, (+) DNA qPCR, read-out: EC50
Procedure: (§1) HepDES19 cells were incubated on collagen-coated plates at 37 °C with 5% CO2 and saturating humidity in Dulbecco’s modified Eagle’s medium (DMEM/F12) (Cytiva Life Sciences, Marlborough, MA, USA) supplemented with 10% fetal bovine serum (FBS), penicillin (100 IU/mL), and streptomycin (100 µg/mL). HepDES19 cells are HepG2 cells that carry a stably transfected HBV genotype D genome under the control of a tetracycline repressible promoter. Cells were maintained in the presence of 1 µg/mL tetracycline to repress the expression of the stably integrated HBV genome, and HBV replication was induced by the withdrawal of tetracycline from the culture medium.
HBV replication inhibition was measured in HepDES19 cells induced to replicate HBV by the removal of tetracycline using a strand-preferential quantitative PCR assay as previously described. Cells were seeded at 4 × 10^4 cells/well in 96-well plates for 48 h. Serially diluted compound was then added to cells at a final concentration of 1% DMSO for 72 h, after which the cells were lysed and qPCR was performed as described in Li et al.. EC50 values were calculated from the (+) DNA data with GraphPad Prism using the four-parameter log (inhibitor) versus response algorithm with the bottom value set to zero. Three or more replicate assays were performed on different days.

MTS cytotoxicity assay = assay type: cell-based; settings: human, HepDES19 cells
Procedure: as §1
(§2) Cell viability was assessed using the CellTiter 96^TM Aqueous Non-Radioactive Cell Proliferation assay (MTS) (Promega, Madison, WI, USA) as described previously. HepDES19 cells were seeded at 1 × 10^4 cells per well in 96-well, and compound was added after 48 h. Cells incubated with serially diluted compound (1% DMSO) for 72 h. Bac absorbance values were subtracted, and data were converted to percent cell viability. The cytotoxic concentration 50% (CC50) values were calculated with GraphPad Prism by using the four-parameter variable response log (inhibitor) versus response algorithm with the bottom value set to zero. Three or more replicate assays were performed on different days.

[4] = Solubility limit assay (turbidity, DMEM-F12 + 10% FBS); assay type: physicochemical; settings: DMEM-F12 without phenol red with 10% FBS, plasma or biological fluid, kinetic from dmso stock; pH 7.4, DMEM-F12 with 10% FBS, 1% DMSO, upper limit 200 µM
Procedure: Compound solubility limits were tested in DMEM-F12 without phenol red (Gibco, Grand Island, NY, USA) supplemented with 10% FBS (pH 7.2–7.4) to mimic cell culture experiments, as we have performed previously. Compounds were serially diluted in buffer at pH 7.4 in 384-well, optically clear plates (upper limit 200 µM, DMSO 1%) and read on a plate reader at 620 nm. Compound concentration (µM) was plotted against optical density (OD) and a solubility limit was determined by identifying an inflection point where there was a significant increase in optical density due to increasing turbidity; the concentration of the compound at the inflection point was defined as the solubility limit. Two or more replicate assays were performed on different days for each compound.

[5] = Parallel artificial membrane permeability assay; assay type: in vitro ADME; settings: PAMPA; for Papp interpretation (high/low permeability category) at 2 h, 200 µM: pH 7.4, pH 7.4; for Papp at 2 h, 200 µM: pH 7.4, pH 7.4, 200 μM, room temperature
Procedure: Apparent passive permeability (Papp) was assessed at pH 7.4 using a 96-well donor/acceptor cassette (Sigma Aldrich, Burlington, MA, USA), which mimics the apical and basolateral sides of the small intestine epithelium, as we have described previously. Briefly, an artificial membrane composed of 1% w/v lethicin/dodecane was added to the poly (vinylidene fluoride) (PVDF) membrane filter. Once dry, compounds (200 μM) were diluted in buffer at pH 7.4 and added to the donor side of the membrane, and the same pH buffer was added to the acceptor side. The cassette was assembled and incubated at room temperature with shaking at 250 rpm for 2 h, after which 100 μL of the acceptor well was retrieved and the experimental compound absorbance was read on a plate reader between 200 and 600 nm. Compound Papps (cm/s) values were determined by normalizing to the compound absorbance at equilibrium, incubation time, and membrane porosity Two or more replicate assays were conducted on different days.

HepDES19 cells [6] = assay: MTS cytotoxicity assay; assay type: cell-based; settings: 72 h
Procedure: as §1, §2

SMILES	EC50 (HBV replication [1]) [µM]	CC50 (HepDES19 cells [2]) [µM]	EC50 (HBV replication [3]) [µM]	CC50 at 72 h (MTS cytotoxicity assay) [µM]	solubility [4] [µM]	Papp interpretation (high/low permeability category) at 2 h, 200 µM [5] [×10⁻⁶ cm/s]	Papp at 2 h, 200 µM [5] [×10⁻⁶ cm/s]	melting point	CC50 (HepDES19 cells [6])
COc1ccc(CON=C(C)c2c(C)cc(=O)n(O)c2O)cc1 [A24]	0.29	102	–	–	–	–	–	–	–
CC(=NOC(C)c1ccccc1)c1c(C)cc(=O)n(O)c1O (stereo not drawn) [Compound 46, 1,6-Dihydroxy-4-methyl-5-(1-((1-phenylethoxy)imino)ethyl)pyridin-2(1H)-one]	–	–	3.1 ± 0.5	100	> 200	> 1	3.19	130 to 132 °C	–
COC(=O)c1ccc(CON=C(C)c2c(C)cc(=O)n(O)c2O)cc1 [Compound 47, 4′-((((1′-(1,2-Dihydroxy-4-methyl-6-oxo-1,6-dihydropyridin-5-yl)ethylidene)amino)oxy)methyl)methyl benzoate]	–	–	1.1 ± 0.4	100	> 200	> 1	5.52	120 °C (dec.)	minimally cytotoxic
CC(=NOCc1ccc([N+](=O)[O-])cc1)c1c(C)cc(=O)n(O)c1O [Compound 48, 1,6-Dihydroxy-4-methyl-5-(1-(((4-nitrobenzyl)oxy)imino)ethyl)pyridin-2(1H)-one]	–	–	1.1 ± 0.2	99.6 ± 0.6	> 200	> 1	5.38	105 to 107 °C	minimally cytotoxic
CC(=NOC(CNC(=O)c1ccc2ccccc2n1)c1cc(F)cc(F)c1)c1c(C)cc(=O)n(O)c1O (stereo not drawn) [Compound 49, N-(2-(3,5-Difluorophenyl)-2-(((1-(1,2-dihydroxy-4-methyl-6-oxo-1,6-dihydropyridin-3-yl)ethylidene)amino)oxy)ethyl)quinoline-2-carboxamide]	–	–	3.5 ± 0.8	99.9 ± 0.2	> 200	> 1	6.71	108 to 110 °C (dec.)	–
CC(=NOC(CNC(=O)c1nccs1)c1cc(F)cc(F)c1)c1c(C)cc(=O)n(O)c1O (stereo not drawn) [Compound 50, N-(2-(3,5-Difluorophenyl)-2-(((1-(1,2-dihydroxy-4-methyl-6-oxo-1,6-dihydropyridin-3-yl)ethylidene)amino)oxy)ethyl)thiazole-2-carboxamide]	–	–	4 ± 1.5	100	> 200	> 1	4.67	117 to 119 °C (dec.)	–
O=C(Nc1ccc2c(c1)C(=O)N(O)C(=O)C2C(=O)NCc1ccc(F)cc1)c1ccccc1 (stereo not drawn) [HID]	1.4	99	–	–	–	–	–	–	–
NCc1ccc(-c2ccc(Cc3cc(=O)n(O)c4ncccc34)cc2)cc1 [HNO]	3.4	7.1	–	–	–	–	–	–	–
C/C(=N\c1cccc(Br)c1)c1c(C)cc(=O)n(O)c1O [HPD imine]	1.1	62.3	–	–	–	–	–	–	–
COC(=O)c1c2c(cc(O)c(=O)c1O)COC2=O [a-HT]	0.5	> 77	–	–	–	–	–	–	–

Reference: publication PMC11206691, “N-Hydroxypiridinedione: A Privileged Heterocycle for Targeting the HBV RNase H” (Molecules, 2024)
